Measurements as given in ChEMBL document CHEMBL5120831, “Pep5-based antitumor peptides containing multifunctional fragments with enhanced activity and synergistic effect” (Eur J Med Chem, 2022).
Calls of active or inactive are those of the source. The rule behind the calls is not given here. Bridge positions count the residues as written; N and C are the ends. Peptide text beside a SMILES is read from it. I, II: the chains in the order shown.

What was measured:
[1] = test system: HepG2; assay: Cytotoxicity against human HepG2 cells assessed as reduction in cell viability measured after 24 hrs by CCK-8 assay; type: functional, cell-based; details: for IC50: HepG2, 24 h
[2] = Cytotoxicity against human L02 cells assessed as reduction in cell viability measured after 24 hrs by CCK-8 assay; type: toxicity, cell-based
[3] = test system: A549; assay: Cytotoxicity against human A549 cells assessed as reduction in cell viability measured after 24 hrs by CCK-8 assay; type: functional, cell-based; details: for IC50: A549, 24 h
[4] = Cytotoxicity against human BEAS-2B cells assessed as reduction in cell viability measured after 24 hrs by CCK-8 assay; type: toxicity, cell-based
[5] = test system: HepG2; assay: Induction of morphological changes in human HepG2 cells assessed as appearance of broken cell structure at 15 uM measured after 24 hrs by high-throughput microscopy; type: functional, cell-based
[6] = test system: L02; assay: Induction of apoptosis in human L02 cells assessed as reduction in viable cells at 15 uM measured after 24 hrs by Annexin V-FITC/propidium iodide staining based flow cytometry; type: toxicity, cell-based; details: l02, 24 h
[7] = test system: BEAS-2B; assay: Induction of apoptosis in human BEAS-2B cells assessed as reduction in viable cells at 15 uM measured after 24 hrs by Annexin V-FITC/propidium iodide staining based flow cytometry; type: toxicity, cell-based
[8] = test system: HepG2; assay: Induction of apoptosis in human HepG2 cells assessed as appearance of apoptotic bodies at 15 uM measured after 24 hrs by transmission electron microscopy; type: functional, cell-based
[9] = test system: HepG2; assay: Induction of apoptosis in human HepG2 cells assessed as chromatin condensation at 15 uM measured after 24 hrs by transmission electron microscopy; type: functional, cell-based
[10] = test system: HepG2; assay: Induction of apoptosis in human HepG2 cells assessed as swollen mitochondria at 15 uM measured after 24 hrs by transmission electron microscopy; type: functional, cell-based
[11] = test system: HepG2; assay: Induction of apoptosis in human HepG2 cells assessed as hollow mitochondria at 15 uM measured after 24 hrs by transmission electron microscopy; type: functional, cell-based
[12] = test system: HepG2; assay: Induction of apoptosis in human HepG2 cells assessed as cell membrane disruption at 15 uM measured after 24 hrs by transmission electron microscopy; type: functional, cell-based
[13] = test system: HepG2; assay: Induction of necrosis in human HepG2 cells assessed as cell membrane disruption at 30 uM measured after 24 hrs by transmission electron microscopy; type: functional, cell-based
[14] = test system: HepG2; assay: Induction of necrosis in human HepG2 cells assessed as releasing of large number of cell content into extracellular space at 30 uM measured after 24 hrs by transmission electron microscopy; type: functional, cell-based
[15] = test system: A549; assay: Induction of apoptosis in human A549 cells assessed as appearance of apoptotic bodies at 15 uM measured after 24 hrs by transmission electron microscopy; type: functional, cell-based
[16] = test system: A549; assay: Induction of apoptosis in human A549 cells assessed as chromatin condensation at 15 uM measured after 24 hrs by transmission electron microscopy; type: functional, cell-based
[17] = test system: A549; assay: Induction of apoptosis in human A549 cells assessed as swollen mitochondria at 15 uM measured after 24 hrs by transmission electron microscopy; type: functional, cell-based
[18] = test system: A549; assay: Induction of apoptosis in human A549 cells assessed as hollow mitochondria at 15 uM measured after 24 hrs by transmission electron microscopy; type: functional, cell-based
[19] = test system: A549; assay: Induction of apoptosis in human A549 cells assessed as cell membrane disruption at 15 uM measured after 24 hrs by transmission electron microscopy; type: functional, cell-based
[20] = test system: A549; assay: Induction of necrosis in human A549 cells assessed as cell membrane disruption at 30 uM measured after 24 hrs by transmission electron microscopy; type: functional, cell-based
[21] = test system: A549; assay: Induction of necrosis in human A549 cells assessed as releasing of large number of cell content into extracellular space at 30 uM measured after 24 hrs by transmission electron microscopy; type: functional, cell-based
[22] = test system: A549; assay: Induction of cell membrane disruption in human A549 cells assessed as increase in LDH release at 15 uM measured after 1 hr by LDH releasing reagent based assay
[23] = test system: HepG2; assay: Induction of cell membrane disruption in human HepG2 cells assessed as increase in LDH release at 15 uM measured after 1 hr by LDH releasing reagent based assay
[24] = test system: Proteasome; assay: Inhibition of proteasome activity in human A549 cells measured after 4 hrs by luciferase assay; details: dose 5-30 µM, DDE = dose-dependent effect
[25] = test system: HepG2; assay: Induction of ROS generation in human HepG2 cells at 10 to 30 uM measured after 4 hrs by DCFH-DA reagent based fluorescence assay; type: functional, cell-based; details: dose 10-30 µM
[26] = test system: HepG2; assay: Antitumor activity against human HepG2 cells xenografted in sc dosed BALB/c nude mouse assessed as tumor growth inhibition administered at 1 day interval for 9 days; type: functional, organism-based; details: dose 25-50 µM, time 9.0 day, DDE = dose-dependent effect
[27] = test system: HepG2; assay: Antitumor activity against human HepG2 cells xenografted in BALB/c nude mouse assessed as reduction in tumor volume at 25 to 50 uM, sc administered at 1 day interval for 9 days; type: functional, organism-based; details: dose 25-50 µM, time 9.0 day
[28] = Toxicity in HepG2 cell xenografted BALB/c nude mouse assessed as change in body weight at 25 to 50 uM, sc administered at 1 day interval for 9 days; type: organism-based; details: in vivo, 216 h, dose 25-50 µM, time 9 day
[29] = test system: HepG2; assay: Antitumor activity against human HepG2 cells xenografted in BALB/c nude mouse assessed as appearance of fuzzy boundary region at 25 to 50 uM, sc administered at 1 day interval for 9 days and measured on day 11 by H and E staining based histological analysis; type: functional, organism-based; details: dose 25-50 µM, time 11.0 day
[30] = test system: HepG2; assay: Antitumor activity against human HepG2 cells xenografted in BALB/c nude mouse assessed as missing nuclei at 25 to 50 uM, sc administered at 1 day interval for 9 days and measured on day 11 by H and E staining based histological analysis; type: functional, organism-based; details: dose 25-50 µM, time 11.0 day
[31] = test system: HepG2; assay: Antitumor activity against human HepG2 cells xenografted in BALB/c nude mouse assessed as induction of apoptosis at 25 to 50 uM, sc administered at 1 day interval for 9 days and measured on day 11 by TUNEL staining based assay; type: functional, organism-based; details: dose 25-50 µM, time 11.0 day
[32] = test system: HepG2; assay: Induction of morphological changes in human HepG2 cells assessed as decrease in cell number at 15 uM measured after 24 hrs by high-throughput microscopy; type: functional, cell-based
[33] = test system: HepG2; assay: Induction of morphological changes in human HepG2 cells assessed as appearance of abnormal cell morphology at 15 uM measured after 24 hrs by high-throughput microscopy; type: functional, cell-based
[34] = test system: HepG2; assay: Induction of apoptosis in human HepG2 cells assessed as increase in late apoptotic cells at 15 uM measured after 24 hrs by Annexin V-FITC/propidium iodide staining based flow cytometry; type: functional, cell-based
[35] = test system: HepG2; assay: Induction of apoptosis in human HepG2 cells assessed as increase in necrotic cells at 15 uM measured after 24 hrs by Annexin V-FITC/propidium iodide staining based flow cytometry; type: functional, cell-based
[36] = test system: A549; assay: Induction of apoptosis in human A549 cells assessed as increase in late apoptotic cells at 15 uM measured after 24 hrs by Annexin V-FITC/propidium iodide staining based flow cytometry; type: functional, cell-based
[37] = test system: A549; assay: Induction of apoptosis in human A549 cells assessed as increase in necrotic cells at 15 uM measured after 24 hrs by Annexin V-FITC/propidium iodide staining based flow cytometry; type: functional, cell-based

For “I: H-WELVVLGKLLLHHLLHHLLHHGLRKRLRKFRNKIKEK / II: H-GLRKRLRKFRNKIKEK-NH2 (amide I:C-II:4)”, the IC50 [1] was 7.77 µM, the IC50 at 24 h [2] was 11.1 µM and the IC50 [3] was 6.41 µM. The IC50 at 24 h [4] was 11.2 µM, the Activity [5] was “Active” and the Activity [6] was “Non-Toxic”. For the same compound, the Activity [7] was “Non-Toxic”, the Activity [8] was “Active” and the Activity [9] was “Active”. The Activity [10] was “Active”, the Activity [11] was “Active” and the Activity [12] was “Active”. The Activity [13] was “Active”, the Activity [14] was “Active” and the Activity [15] was “Active”. For the same compound, the Activity [16] was “Active”, the Activity [17] was “Active” and the Activity [18] was “Active”. For the same compound, the Activity [19] was “Active”, the Activity [20] was “Active” and the Activity [21] was “Active”. For the same compound, the Activity [22] was “Active”, the Activity [23] was “Active” and the inhibition [24] was “Dde”. For the same compound, the Activity [25] was “Active”, the TGI [26] was “Dde” and the Activity [27] was “Active”. For the same compound, the Activity [28] was “Non-Toxic”, the Activity [29] was “Active” and the Activity [30] was “Active”. The Activity [31] was “Active”.
With `CC(C)C[C@H](NC(=O)[C@H](CCCCN)NC(=O)CNC(=O)[C@H](CC(C)C)NC(=O)[C@@H](NC(=O)[C@@H](NC(=O)[C@H](CC(C)C)NC(=O)[C@H](CCC(=O)O)NC(=O)[C@@H](N)Cc1c[nH]c2ccccc12)C(C)C)C(C)C)C(=O)N[C@@H](Cc1ccc(O)cc1)C(=O)NCC(=O)N[C@@H](CCCNC(=N)N)C(=O)N[C@@H](CCCCN)C(=O)N[C@@H](CCCCN)C(=O)N[C@@H](CCCNC(=N)N)C(=O)N[C@@H](CCCNC(=N)N)C(=O)N[C@@H](CCC(N)=O)C(=O)N[C@@H](CCCNC(=N)N)C(=O)N[C@@H](CCCNC(=N)N)C(=O)N[C@@H](CCCNC(=N)N)C(=O)O` (H-WELVVLGKLYGRKKRRQRRR-OH) the Activity ([1]; DDE = dose-dependent effect) was “Dde”, the IC50 [1] was 31.2 µM and the IC50 at 24 h [2] was 63.9 µM. For the same compound, the IC50 [3] was 30.9 µM, the Activity ([3]; DDE = dose-dependent effect) was “Dde” and the IC50 at 24 h [4] was 32.9 µM. For the same compound, the Activity [32] was “Active”, the Activity [33] was “Active” and the Activity [34] was “Active”. The Activity [35] was “Active”, the Activity [36] was “Active” and the Activity [37] was “Active”. For the same compound, the Activity [6] was “Non-Toxic”, the Activity [7] was “Non-Toxic” and the Activity [22] was “Active”. The Activity [23] was “Active”, the TGI [26] was “Dde” and the Activity [27] was “Active”. For the same compound, the Activity [28] was “Non-Toxic”, the Activity [29] was “Active” and the Activity [30] was “Active”. The Activity [31] was “Active”.
